Results taken from patent US9040544B2, “2,5-substituted oxazolopyrimidine derivatives” (Sanofi, priority 2010, dated 2015).

Target: T1, human Edg-1 receptor (Homo sapiens, UniProt P21453)
T1 construct: expressed in transfected cells; host or cells: Flp-In-CHO cells, stably transfected; membrane preparation
Assay: GTP-γ-S assay using human Edg-1 receptors (scintillation proximity assay, CHO Flp-In cell membrane preparation)
Format: biochemical
Conditions: test compound at 10 μM; 10 μM S1P regarded as 100% activation; background-corrected; triplicate; read-out: % Activation (Edg-1 receptor activation in percent of the activation by 10 μM S1P)
Source text: A) GTP-γ-S assay using human Edg-1 receptors
In order to determine the Edg-1 receptor activation by the compounds of the invention, a GTP-γ-S (guanosine 5′-[thio]triphosphate) assay for G-protein coupled receptor binding based on the scintillation proximity assay principle was used, employing a cell membrane preparation from a CHO Flp-In cell line which constitutively overexpresses the human Edg-1 receptor.
(a) Cell line generation The Flp-In™ expression system (Invitrogen, cat. no. K6010-01) allows the generation of stable mammalian cell lines into which the gene of interest has been integrated through homologous recombination at a specific genomic location called Flp Recombination Target (FRT) site by means of a Flp recombinase encoded by the pOG44 expression plasmid. The integration of the pcDNA5/FRT expression construct into the Flp-In host cell line genome results in the transcription of the gene of interest. The stably transfected cells become hygromycin-resistant.
One day prior to transfection, 200 000 Flp-In-CHO cells were seeded in Ham F-12 medium (Invitrogen, cat. no. 31765) supplemented with 10% fetal calf serum (FCS; Perbio Science, cat. no. SH30068.03) in a 6-well plate and incubated at 37° C./5% CO2 overnight. Using the FuGENE® 6 transfection reagent (Roche, cat. no. 11988387001), cells were cotransfected with the Flp recombinase expression plasmid pOG44 and a modified plasmid additionally containing the edg-1 gene (accession no. NM_001400) termed as pcDNA5-FRT-TO_nFLAG_DEST-EDG-1 with a 9:1 ratio. To obtain the modified pcDNA5-FRT-TO_nFLAG_DEST plasmid, the Invitrogen plasmid pcDNA5/FRT/TO (Invitrogen, cat. no. V6520-20) was adapted to the Gateway® (Invitrogen) cloning system by inserting a Gateway cassette containing attR recombination sites flanking a ccdB gene and a chloramphenicol-resistance gene (Gateway conversion system, Invitrogen, cat. no. 11828-029). In addition a FLAG tag epitope was added before the 5′ att recombination site to allow recombinant expression of N-terminally FLAG-tagged proteins.
For the transfection of one well, 1.08 μg of pOG44 and 0.12 μg of pcDNA5-FRT-TO_nFLAG_DEST-EDG-1 were mixed to 100 μl of serum-free Ham F-12 medium containing 6 μl of FuGENE® 6 transfection reagent. After 20 min of incubation, the transfection reagent/DNA complex was distributed dropwise on the cells. The cells were incubated for 24 h at 37° C. Then the cells from 3 wells were transferred to a T75 flask (Greiner Cellstar®, cat. no. 658175) containing Ham F-12 medium supplemented with 10% of FCS but without antibiotic and were incubated another 24 h. 48 h after transfection, the medium was replaced by selection medium (Ham F-12 supplemented with 10% of FCS and 300 μg/ml of hygromycin B (Invitrogen, cat. no. 10687-010)). The medium was exchanged every 2 to 3 days until a resistant population of cells had grown. […] After 2 weeks of selection, the cells were transferred into T175 flasks (Greiner Cellstar®, cat. no. 660175) and cultivated for batch production. Cells were harvested from the culture flasks by short treatment (2 to 5 min) with Accutase (PAA, cat. no. L11-007), resuspended in selection medium (see above) and centrifuged at 200×g for 5 min. Cells were resuspended in a mixture of 90% of FCS and 10% of dimethylsulfoxide and stored frozen in liquid nitrogen.
A membrane preparation was obtained by standard methods from the afore-described CHO Flp-ln cell line constitutively overexpressing the human Edg-1 receptor. Briefly, the cryopreserved cells were taken in culture and grown until confluency in T175 cell culture flasks (Becton Dickinson, cat. no. 35 5001). […]

T1 sequence (P21453 whole entry): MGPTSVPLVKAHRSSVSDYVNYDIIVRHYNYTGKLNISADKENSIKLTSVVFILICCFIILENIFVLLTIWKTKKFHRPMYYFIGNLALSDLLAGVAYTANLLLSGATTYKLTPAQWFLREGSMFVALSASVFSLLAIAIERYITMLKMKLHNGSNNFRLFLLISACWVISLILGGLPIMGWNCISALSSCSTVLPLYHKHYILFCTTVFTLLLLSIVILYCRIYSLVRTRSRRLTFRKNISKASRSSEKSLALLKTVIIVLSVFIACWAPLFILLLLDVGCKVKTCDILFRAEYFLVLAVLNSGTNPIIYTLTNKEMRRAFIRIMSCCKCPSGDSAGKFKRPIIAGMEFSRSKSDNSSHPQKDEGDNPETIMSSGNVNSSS

Row | Structure (SMILES) | activation at 10 µM [%]
1 | COc1c(C)cc(-c2nc3cnc(Oc4ccccc4F)nc3o2)cc1C [Example 1, 5-(2-Fluoro-phenoxy)-2-(4-methoxy-3,5-dimethyl-phenyl)-oxazolo[5,4-d]pyrimidine] | 102
2 | Cc1cc(-c2nc3cnc(Oc4ccccc4F)nc3o2)cc(C)c1O [Example 2, 4-[5-(2-Fluoro-phenoxy)-oxazolo[5,4-d]pyrimidin-2-yl]-2,6-dimethyl-phenol] | 115
3 | COc1cccc(-c2nc3cnc(Oc4ccccc4F)nc3o2)c1 [Example 3, 5-(2-fluoro-phenoxy)-2-(3-methoxy-phenyl)-oxazolo[5,4-d]pyrimidine] | 95
4 | Oc1ccc(-c2nc3cnc(Oc4ccccc4F)nc3o2)cc1 [Example 4, 4-[5-(2-fluoro-phenoxy)-oxazolo[5,4-d]pyrimidin-2-yl]-phenol] | 83
5 | COc1ccc(-c2nc3cnc(Oc4ccccc4F)nc3o2)cc1C [Example 5, 5-(2-fluoro-phenoxy)-2-(4-methoxy-3-methyl-phenyl)-oxazolo[5,4-d]pyrimidine] | 42
6 | COc1ccc(-c2nc3cnc(Oc4ccccc4F)nc3o2)cc1C(F)(F)F [Example 6, 5-(2-fluoro-phenoxy)-2-(4-methoxy-3-trifluoromethyl-phenyl)-oxazolo[5,4-d]pyrimidine] | 87
7 | Cc1cc(-c2nc3cnc(Oc4ccccc4F)nc3o2)ccc1O [Example 7, 4-[5-(2-fluoro-phenoxy)-oxazolo[5,4-d]pyrimidin-2-yl]-2-methyl-phenol] | 115
8 | COc1c(C)cc(-c2nc3cnc(Oc4ccccc4)nc3o2)cc1C [Example 8, 2-(4-methoxy-3,5-dimethyl-phenyl)-5-phenoxy-oxazolo[5,4-d]pyrimidine] | 94
9 | COc1c(C)cc(-c2nc3cnc(Oc4cccnc4)nc3o2)cc1C [Example 9, 2-(4-methoxy-3,5-dimethyl-phenyl)-5-(pyridin-3-yloxy)-oxazolo[5,4-d]pyrimidine] | 87
10 | Oc1ccc(-c2nc3cnc(Oc4ccccc4F)nc3o2)cc1C(F)(F)F [Example 10, 4-[5-(2-fluoro-phenoxy)-oxazolo[5,4-d]pyrimidin-2-yl]-2-trifluoromethyl-phenol] | 107
11 | Cc1cc(-c2nc3cnc(Oc4cccnc4)nc3o2)cc(C)c1O [Example 11, 2,6-dimethyl-4-[5-(pyridin-3-yloxy)-oxazolo[5,4-d]pyrimidin-2-yl]-phenol] | 103
12 | Cc1cc(-c2nc3cnc(Oc4cccc(F)c4)nc3o2)cc(C(C)C)c1O [Example 12, 4-[5-(3-fluorophenoxy)-oxazolo[5,4-d]pyrimidin-2-yl]-2-isopropyl-6-methyl-phenol] | 112
13 | Cc1cc(-c2nc3cnc(Oc4ccccc4F)nc3o2)ccc1S(C)(=O)=O [Example 13, 5-(2-fluorophenoxy)-2-(4-methanesulfonyl-3-methylphenyl)-oxazolo[5,4-d]pyrimidine] | 120
14 | Cc1cc(S(C)(=O)=O)ccc1-c1nc2cnc(Oc3ccccc3F)nc2o1 [Example 14, 5-(2-fluorophenoxy)-2-(4-methanesulfonyl-2-methylphenyl)-oxazolo[5,4-d]pyrimidine] | 69
